# Experimental data reported in patent US10077261B2, “Imidazolin-5-one derivative useful as FASN inhibitors for the treatment of cancer” (Janssen Pharmaceutica NV, priority 2012, dated 2018).
# How the values were obtained:
# [1] = target: T1, hFASN enzyme (full length) (Homo sapiens, UniProt P49327); test: Fatty Acid Synthase (FASN) inhibition scintillation proximity assay; format: biochemical; conditions: for inhibition at 10 µM: read-out: Human FASN % inhibition @ 10 μM, 10 μM test compound; for IC50: read-out: Human FASN pIC50 (converted)
# T1 construct: 10 μL hFASN enzyme (full length, 300 ng, purified in house); made in house
# T1 sequence (P49327 whole entry): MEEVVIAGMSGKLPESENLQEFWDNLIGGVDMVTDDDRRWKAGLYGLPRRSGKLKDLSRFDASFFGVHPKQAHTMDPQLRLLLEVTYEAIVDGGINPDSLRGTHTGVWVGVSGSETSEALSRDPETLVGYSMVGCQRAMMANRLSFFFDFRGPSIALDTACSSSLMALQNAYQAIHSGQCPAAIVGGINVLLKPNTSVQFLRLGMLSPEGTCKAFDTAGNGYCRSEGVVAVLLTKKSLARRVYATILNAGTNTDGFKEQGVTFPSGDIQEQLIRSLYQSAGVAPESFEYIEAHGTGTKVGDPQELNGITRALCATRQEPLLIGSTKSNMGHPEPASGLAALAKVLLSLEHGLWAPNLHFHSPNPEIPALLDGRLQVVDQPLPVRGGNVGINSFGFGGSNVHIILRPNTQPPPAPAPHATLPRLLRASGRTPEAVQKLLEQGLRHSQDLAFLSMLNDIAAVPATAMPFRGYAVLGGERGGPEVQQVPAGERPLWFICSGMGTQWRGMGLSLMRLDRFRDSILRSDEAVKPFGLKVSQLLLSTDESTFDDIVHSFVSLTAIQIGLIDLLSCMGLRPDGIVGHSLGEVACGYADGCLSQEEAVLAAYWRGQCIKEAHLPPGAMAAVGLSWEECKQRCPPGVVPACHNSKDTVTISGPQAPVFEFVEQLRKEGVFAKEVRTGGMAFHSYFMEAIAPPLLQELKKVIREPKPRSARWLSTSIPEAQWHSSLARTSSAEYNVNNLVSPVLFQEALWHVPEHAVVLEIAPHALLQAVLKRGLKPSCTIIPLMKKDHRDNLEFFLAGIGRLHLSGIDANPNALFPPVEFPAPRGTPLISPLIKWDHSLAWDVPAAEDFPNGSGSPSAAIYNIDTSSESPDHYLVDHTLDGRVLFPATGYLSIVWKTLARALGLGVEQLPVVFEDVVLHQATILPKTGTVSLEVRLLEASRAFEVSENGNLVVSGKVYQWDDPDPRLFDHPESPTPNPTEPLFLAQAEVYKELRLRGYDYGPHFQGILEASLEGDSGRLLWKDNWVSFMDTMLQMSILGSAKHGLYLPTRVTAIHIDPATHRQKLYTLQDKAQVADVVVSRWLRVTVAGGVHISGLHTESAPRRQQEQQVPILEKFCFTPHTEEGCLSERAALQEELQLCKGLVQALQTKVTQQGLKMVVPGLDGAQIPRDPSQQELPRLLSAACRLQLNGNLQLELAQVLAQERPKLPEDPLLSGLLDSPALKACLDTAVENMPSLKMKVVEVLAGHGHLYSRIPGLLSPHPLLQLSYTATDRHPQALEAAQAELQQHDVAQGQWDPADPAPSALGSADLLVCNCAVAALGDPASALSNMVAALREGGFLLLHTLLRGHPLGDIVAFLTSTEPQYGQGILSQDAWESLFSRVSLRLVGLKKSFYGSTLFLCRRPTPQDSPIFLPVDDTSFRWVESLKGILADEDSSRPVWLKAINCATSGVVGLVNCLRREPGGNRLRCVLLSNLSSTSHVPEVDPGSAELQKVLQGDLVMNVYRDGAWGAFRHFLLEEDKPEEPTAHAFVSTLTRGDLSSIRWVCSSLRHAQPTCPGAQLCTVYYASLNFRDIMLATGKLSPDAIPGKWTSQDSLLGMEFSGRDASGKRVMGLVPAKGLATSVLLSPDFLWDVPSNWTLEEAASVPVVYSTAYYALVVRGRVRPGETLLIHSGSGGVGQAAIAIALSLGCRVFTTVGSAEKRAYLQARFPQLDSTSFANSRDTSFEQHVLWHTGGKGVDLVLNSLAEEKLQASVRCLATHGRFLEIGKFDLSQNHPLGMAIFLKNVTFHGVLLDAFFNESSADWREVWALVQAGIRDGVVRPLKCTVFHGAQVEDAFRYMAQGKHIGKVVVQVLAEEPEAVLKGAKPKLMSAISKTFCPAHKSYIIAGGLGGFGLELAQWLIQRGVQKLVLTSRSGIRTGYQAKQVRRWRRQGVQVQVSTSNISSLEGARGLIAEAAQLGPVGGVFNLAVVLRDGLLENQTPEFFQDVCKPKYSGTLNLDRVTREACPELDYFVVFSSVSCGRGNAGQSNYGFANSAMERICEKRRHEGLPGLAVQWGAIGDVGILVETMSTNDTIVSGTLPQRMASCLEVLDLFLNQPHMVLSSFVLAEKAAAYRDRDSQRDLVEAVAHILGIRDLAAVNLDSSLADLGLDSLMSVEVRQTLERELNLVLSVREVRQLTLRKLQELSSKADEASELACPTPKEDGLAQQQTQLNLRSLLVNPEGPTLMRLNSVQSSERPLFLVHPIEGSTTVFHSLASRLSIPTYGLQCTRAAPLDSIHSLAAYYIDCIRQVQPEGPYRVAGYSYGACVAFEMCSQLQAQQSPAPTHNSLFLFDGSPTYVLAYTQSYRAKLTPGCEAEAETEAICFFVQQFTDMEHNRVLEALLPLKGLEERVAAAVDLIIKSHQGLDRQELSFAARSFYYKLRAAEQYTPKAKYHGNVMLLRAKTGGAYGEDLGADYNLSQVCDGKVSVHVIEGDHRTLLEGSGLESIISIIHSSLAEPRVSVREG
# Procedure, shortened: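 Compounds at 0.01–30 μM were mixed with 300 ng purified full-length enzyme in 100 mM KH2PO4 pH 7.5, 1 mM DTT. Substrates ³H-acetyl-CoA and malonyl-CoA were then converted, and bead addition stopped the reaction. Signal was normalised to low and high plate controls and fitted by 4-parameter nonlinear regression.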
# A2780 ovarian cells [2] = test: A2780 ovarian cell proliferation assay in lipid reduced medium, with palmitate (MTT); format: cell-based; conditions: Homo sapiens, A2780, 96 h; read-out: pIC50 A2780 Ovarian Cell, With Palmitate (converted)
# Procedure, shortened: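 Seeded cells were switched next day to lipid-reduced serum, exposed to compound and 25 μM palmitate complexed with fatty-acid-free BSA, and incubated 96 h. Proliferation was then determined by MTT absorbance at 544 nm, with a best-fit curve of signal against concentration.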
# A2780 ovarian cells [3] = test: A2780 ovarian cell proliferation assay in lipid reduced medium, without palmitate (MTT); format: cell-based; conditions: Homo sapiens, A2780, 96 h; read-out: pIC50 A2780 Ovarian Cell, Without Palmitate (converted)
# [4] = system: LNCaP-Vancouver prostate cells; test: In vitro LNCaP Vancouver prostate cell proliferation assay in lipid reduced medium; format: cell-based; conditions: read-out: pIC50 LNCaP_Vancouver prostate cell (converted)
# Procedure: LNCaP-Vancouver prostate cells were obtained from the Vancouver Prostate Cancer Centre. Cells were maintained in RPMI-1640, 10% Fetal Calf Serum (FCS, Hyclone), 2 mM glutamine and 50 μg/ml Gentamicin.
# For the proliferation experiment 1500 LNCaP-Vancouver cells per well were seeded in a 384-well black with clear bottom plate (costar 3712BC) in 40 μl RPMI-1640, 10% Lipid reduced serum (LRS, Hyclone), 50 μg/ml Gentamicin and 2 mM Glutamine and incubated at 37° C., 5% CO2. The next day 10 μl of test compound/DMSO diluted in medium was added (3E-5M, 1E-5M, 3E-6M, 1E-6M, 3E-7M, 1E-7M, 3E-8M, 1E-8M final concentration). Compounds were tested in duplicate. After 96 h incubation at 37° C., 5% CO2 25 μl ATP-glow mix was added. The plate was incubated for 30 min at 37° C. and luminescence was measured with the Envision.
# Analysis: Determination of pIC50 Values
# pIC50 values were calculated as follows.
# where mLC and mHC are the means of the low control wells and high control wells on the plate, after manual exclusion of outliers. The relation between the % Controlmin values and concentration was fitted to a 4-parameter logistic curve using a non-linear least squares regression method to determine the pIC50 value. Outlying data points were excluded manually to get a correct fit. The pIC50 corresponds to −log 10(IC50), if the IC50 is expressed in molar units (http://www.ncbi.nlm.nih.gov/books/NBK91994). The IC50 parameter was always determined by non-linear regression, but one or more of the other parameters may have been held fixed on a relevant input value, such as 0 for the bottom values.
# For dose response curves with FASN inhibitors in LNCaP-Vancouver or PC-3M-Luc-C6 cells the curves bottom out around 30 to 40% of the control value. A standard fit PL2, forcing the lower bound to this level was used.
# Representative compounds of the present invention were tested according to the procedure as described in Biological Example 4a and 4b above, with results as listed in Table 9, below.
# [5] = target: Fatty Acid Synthase Keto-reductase Domain (FASN KR) (Homo sapiens, UniProt P49327); test: Fatty Acid Synthase keto-reductase domain (FASN KR) inhibition, NADPH oxidation at 340 nm
# Chain of Fatty Acid Synthase Keto-reductase Domain (FASN KR) (P49327 whole entry, the tested form may be a part): as the sequence (P49327 whole entry) above
# Procedure: After 20 minutes incubation at room temperature the plate was measured again (T2).
# The decrease in absorbance was calculated as (Absorbance before incubation T1)−(Absorbance following incubation T2).
# A plot of Controlmin versus test compound concentration was fitted to a 4-parameter logistic curve using a non-linear least squares regression method.
Structure (SMILES),inhibition at 10 µM [1],IC50 [1],IC50 (A2780 ovarian cells [2]),IC50 (A2780 ovarian cells [3]),IC50 [4],IC50 [5],"Human FASN pIC50 ([1]; hFASN enzyme full length, scintillation proximity assay, ""~"" = standard error of pIC50 larger than 0.5)"
"Cc1sc2ccc(-c3ccc(C4=NC5(CC5)C(=O)N4C[C@@H]4CCN(C(=O)C5CC5)C4)cc3)cc2c1C [compound 296, (R)-6-((1-(cyclopropanecarbonyl)pyrrolidin-3-yl)methyl)-5-(4-(2,3-dimethylbenzo[b]thiophen-5-yl)phenyl)-4,6-diazaspiro[2.4]hept-4-en-7-one]",106%,38.9 nM,> 10000 nM,~2090 nM,3630 nM,81.3 nM,
"Cc1cc(-c2ccc3cn(C)nc3c2)ccc1C1=NC2(CC2)C(=O)N1CC1CN(C(=O)C2(C)CC2)C1 [compound 336, 5-(2-methyl-4-(2-methyl-2H-indazol-6-yl)phenyl)-6-((1-(1-methylcyclopropanecarbonyl)azetidin-3-yl)methyl)-4,6-diazaspiro[2.4]hept-4-en-7-one]",103%,50.1 nM,> 10000 nM,20 nM,105 nM,69.2 nM,
"Cn1ncc2cc(-c3ccc(C4=NC5(CC5)C(=O)N4CC4CN(C(=O)C5CC5)C4)c(F)c3)ccc21 [compound 347, 6-((1-(cyclopropanecarbonyl)azetidin-3-yl)methyl)-5-(2-fluoro-4-(1-methyl-1H-indazol-5-yl)phenyl)-4,6-diazaspiro[2.4]hept-4-en-7-one]",98%,49 nM,> 10000 nM,~50.1 nM,708 nM,120 nM,
"Cn1ncc2cc(-c3ccc(C4=NC5(CC5)C(=O)N4C[C@@H]4CCN(C(=O)C5CC5)C4)nc3)ccc21 [compound 397, 6-{[(3R)-1-(Cyclopropylcarbonyl)pyrrolidin-3-yl]methyl}-5-[5-(1-methyl-1H-indazol-5-yl)pyridin-2-yl]-4,6-diazaspiro[2.4]hept-4-en-7-one]",90%,,> 10000 nM,1550 nM,3020 nM,~3890 nM,6.1
"Cc1sc2ccc(-c3ccc(C4=NC5(CC5)C(=O)N4C[C@@H]4CCN(C(=O)C5CC5)C4)cc3F)cc2c1C [compound 406, 6-{[(3R)-1-(Cyclopropylcarbonyl)pyrrolidin-3-yl]methyl}-5-[4-(2,3-dimethyl-1-benzothiophen-5-yl)-3-fluorophenyl]-4,6-diazaspiro[2.4]hept-4-en-7-one]",99%,126 nM,> 10000 nM,6030 nM,7080 nM,363 nM,
"O=C(C1CC1)N1CC[C@@H](CN2C(=O)C3(CC3)N=C2c2ccc(-c3cccc4[nH]ncc34)cn2)C1 [compound 429, 6-{[(3R)-1-(Cyclopropylcarbonyl)pyrrolidin-3-yl]methyl}-5-[5-(1H-indazol-4-yl)pyridin-2-yl]-4,6-diazaspiro[2.4]hept-4-en-7-one]",96%,240 nM,> 10000 nM,417 nM,1320 nM,513 nM,
"Cc1cc(C2=NC3(CC3)C(=O)N2CC2CN(C(=O)C3CC3)C2)ccc1-c1ccc2[nH]ccc2c1 [compound 435, 6-{[1-(Cyclopropylcarbonyl)azetidin-3-yl]methyl}-5-[4-(1H-indol-5-yl)-3-methylphenyl]-4,6-diazaspiro[2.4]hept-4-en-7-one]",91%,263 nM,> 10000 nM,~933 nM,3470 nM,1230 nM,
"Cn1nc(C2CC2)c2cc(-c3ccc(C4=NC5(CC5)C(=O)N4C[C@@H]4CCN(C(=O)C5CC5)C4)cc3)ccc21 [compound 465, 6-{[(3R)-1-(Cyclopropylcarbonyl)pyrrolidin-3-yl]methyl}-5-[4-(3-cyclopropyl-1-methyl-1H-indazol-5-yl)phenyl]-4,6-diazaspiro[2.4]hept-4-en-7-one]",99%,151 nM,> 10000 nM,182 nM,525 nM,200 nM,
"O=C(C1CC1)N1CC[C@@H](CN2C(=O)C3(CC3)N=C2c2ccc(-c3ccc4cnc(Cl)cc4c3)cc2)C1 [compound 466, 5-[4-(3-Chloroisoquinolin-6-yl)phenyl]-6-{[(3R)-1-(cyclopropylcarbonyl)pyrrolidin-3-yl]methyl}-4,6-diazaspiro[2.4]hept-4-en-7-one]",87%,479 nM,> 10000 nM,~2690 nM,3800 nM,1350 nM,
"CCC(=O)N1CC(CN2C(=O)C3(CC3)N=C2c2ccc(-c3ccc4c(cnn4C)c3)cc2C)C1 [compound 471, 5-[2-Methyl-4-(1-methyl-1H-indazol-5-yl)phenyl]-6-[(1-propanoylazetidin-3-yl)methyl]-4,6-diazaspiro[2.4]hept-4-en-7-one]",99%,182 nM,> 10000 nM,417 nM,1290 nM,331 nM,
"Cc1cc(-c2ccc3c(cnn3C)c2)ccc1C1=NC2(CC2)C(=O)N1CC1CN(C(=O)C(C)C)C1 [compound 473, 5-[2-Methyl-4-(1-methyl-1H-indazol-5-yl)phenyl]-6-{[1-(2-methylpropanoyl)azetidin-3-yl]methyl}-4,6-diazaspiro[2.4]hept-4-en-7-one]",95%,269 nM,> 10000 nM,~275 nM,2190 nM,525 nM,
"Cc1cc(C2=NC3(CC3)C(=O)N2C[C@@H]2CCN(C(=O)C3CC3)C2)ccc1-c1ccc2oc(C#N)cc2c1 [compound 476, 5-[4-(6-{[(3R)-1-(Cyclopropylcarbonyl)pyrrolidin-3-yl]methyl}-7-oxo-4,6-diazaspiro[2.4]hept-4-en-5-yl)-2-methylphenyl]-1-benzofuran-2-carbonitrile]",90%,263 nM,> 10000 nM,~2040 nM,3720 nM,617 nM,
"Cc1cc(-c2ccc3c(cnn3C)c2)ccc1C1=NC2(CC2)C(=O)N1CC1CN(C(=O)C2(CO)CC2)C1 [compound 480, 6-[(1-{[1-(Hydroxymethyl)cyclopropyl]carbonyl}azetidin-3-yl)methyl]-5-[2-methyl-4-(1-methyl-1H-indazol-5-yl)phenyl]-4,6-diazaspiro[2.4]hept-4-en-7-one]",97%,155 nM,> 10000 nM,~257 nM,1150 nM,525 nM,
"Cn1ncc2cc(-c3ccc(C4=NC5(CC5)C(=O)N4C[C@@H]4CCN(C(=O)C5COC5)C4)cc3)ccc21 [compound 490, 5-[4-(1-Methyl-1H-indazol-5-yl)phenyl]-6-{[(3R)-1-(oxetan-3-ylcarbonyl)pyrrolidin-3-yl]methyl}-4,6-diazaspiro[2.4]hept-4-en-7-one]",81%,331 nM,> 10000 nM,93.3 nM,1050 nM,363 nM,
"O=C1CCc2cc(-c3ccc(C4=NC5(CC5)C(=O)N4C[C@@H]4CCN(C(=O)C5CC5)C4)cc3)ccc2N1 [compound 512, 6-[4-(6-{[(3R)-1-(Cyclopropylcarbonyl)pyrrolidin-3-yl]methyl}-7-oxo-4,6-diazaspiro[2.4]hept-4-en-5-yl)phenyl]-3,4-dihydroquinolin-2(1H)-one]",87%,676 nM,> 10000 nM,1000 nM,3980 nM,3090 nM,
